Test results taken from patent publication US9527832B2, “Substituted condensed pyrimidine compounds” (GRÜNENTHAL GMBH, priority 2013, dated 2016).

Tests used:
human PDE4B1 = molecular target: T1, human PDE4B1 (Homo sapiens, UniProt Q07343); assay: cAMP HTRF assay to determine the activity of hPDE4B1; format: biochemical; settings: for IC50: dose response measurements with eight concentrations, reported as ranges, read-out: IC50
T1 construct: host or cells: Sf9 cells
How it was run: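 Sf9-expressed recombinant human PDE4B1 (4.8 U) in Tris-HCl/MgCl2/DTT/Tween 20 buffer pH 7.8, with cAMP at 40 nM final, 30 min at room temperature. Reaction stopped with IBMX 1 mM; remaining cAMP detected by HTRF (665/620 nm ratio). IC50 from eight-point dose-response, n=2.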

[1] = Percentage inhibition of PDE4B at 1 μM test concentration

T1 sequence (Q07343 whole entry): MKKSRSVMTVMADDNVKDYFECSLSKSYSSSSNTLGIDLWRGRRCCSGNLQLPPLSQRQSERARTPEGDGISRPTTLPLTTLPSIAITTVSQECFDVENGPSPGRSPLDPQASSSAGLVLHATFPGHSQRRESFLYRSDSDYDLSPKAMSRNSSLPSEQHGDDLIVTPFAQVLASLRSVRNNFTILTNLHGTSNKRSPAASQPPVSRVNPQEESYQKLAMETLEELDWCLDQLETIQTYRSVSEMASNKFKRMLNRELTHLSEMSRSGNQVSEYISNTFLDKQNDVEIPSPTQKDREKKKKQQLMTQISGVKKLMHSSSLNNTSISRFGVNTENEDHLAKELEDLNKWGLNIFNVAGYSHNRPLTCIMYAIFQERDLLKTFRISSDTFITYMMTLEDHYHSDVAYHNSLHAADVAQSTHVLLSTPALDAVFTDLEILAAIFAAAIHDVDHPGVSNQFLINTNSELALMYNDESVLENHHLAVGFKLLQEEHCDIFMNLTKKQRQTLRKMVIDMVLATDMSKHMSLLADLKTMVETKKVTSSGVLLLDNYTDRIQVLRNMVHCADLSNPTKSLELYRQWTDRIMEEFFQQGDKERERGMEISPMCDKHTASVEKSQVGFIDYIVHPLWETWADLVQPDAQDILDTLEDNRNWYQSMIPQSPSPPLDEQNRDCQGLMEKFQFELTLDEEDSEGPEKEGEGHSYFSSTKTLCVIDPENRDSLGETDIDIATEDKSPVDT

Row | Compound | melting point [°C] | inhibition at 1 µM (human PDE4B1; [1]) [%] | IC50 (human PDE4B1) [µM] | Inhibition at 1 μM test concentration [%] (human PDE4B1; [1])
1 | CN(C)C(=O)COc1cccc2c1CCN2c1nc(-c2ccc(F)c(F)c2)nc2c1CS(=O)(=O)C2 [Compound No. 2-12, 2-((1-(2-(3,4-Difluoro-phenyl)-6,6-dioxo-5,7-dihydro-thieno[3,4-d]pyrimidin-4-yl)-2,3-dihydro-1H-indol-4-yl)oxy)-N,N-dimethyl-acetamide] | 212 to 217 |  |  | 
2 | CN(C)C(=O)COc1cccc2c1CCN2c1nc(-c2cccc(F)c2)nc2c1CS(=O)(=O)C2 [Compound No. 2-4, 2-((1-(2-(3-Fluorophenyl)-6,6-dioxo-5,7-dihydro-thieno[3,4-d]pyrimidin-4-yl)-2,3-dihydro-1H-indol-4-yl)oxy)-N,N-dimethyl-acetamide] | 237 to 245 |  |  | 
3 | COc1ccc(-c2nc3c(c(N4CCc5cc(CC(=O)O)ccc54)n2)CS(=O)(=O)C3)cc1F [Compound No. 1-10, 2-(1-(2-(3-Fluoro-4-methoxy-phenyl)-6,6-dioxo-5,7-dihydro-thieno[3,4-d]pyrimidin-4-yl)-2,3-dihydro-1H-indol-5-yl)acetic acid] | 192 to 195 | 96 | < 0.1 | 
4 | COc1ccc(-c2nc3c(c(N4CCc5cc(CC(=O)O)ccc54)n2)CS(=O)(=O)C3)cc1 [Compound No. 1-12, 2-(1-(2-(4-Methoxyphenyl)-6,6-dioxo-5,7-dihydro-thieno[3,4-d]pyrimidin-4-yl)-2,3-dihydro-1H-indol-5-yl)acetic acid] | 239 to 243 | 108 | < 0.1 | 
5 | COc1ccc(-c2nc3c(c(N4CCc5c(OCC(=O)N(C)C)cccc54)n2)CS(=O)(=O)C3)cc1 [Compound No. 2-2, 2-((1-(2-(4-Methoxyphenyl)-6,6-dioxo-5,7-dihydro-thieno[3,4-d]pyrimidin-4-yl)-2,3-dihydro-1H-indol-4-yl)oxy)-N,N-dimethyl-acetamide] | 225 to 232 |  |  | 
6 | COc1ccc(-c2nc3c(c(N4CCc5c(OCC(=O)N(C)C)cccc54)n2)CS(=O)(=O)C3)cc1F [Compound No. 2-10, 2-((1-(2-(3-Fluoro-4-methoxy-phenyl)-6,6-dioxo-5,7-dihydro-thieno[3,4-d]pyrimidin-4-yl)-2,3-dihydro-1H-indol-4-yl)oxy)-N,N-dimethyl-acetamide] | 231 to 233 |  |  | 
7 | O=C(COc1ccc2c(c1)N(c1nc(-c3ccc(Cl)s3)nc3c1CCC3)CC2)N1CCCC1 [Compound No. 2-142, 2-((1-(2-(5-Chlorothiophen-2-yl)-6,7-dihydro-5H-cyclopenta[d]pyrimidin-4-yl)indolin-6-yl)oxy)-1-(pyrrolidin-1-yl)ethanone] | 209 to 212 | 61 | 0.1 to 1 | 
8 | CN(C)C(=O)COc1cccc2c1CCN2c1nc(-c2cccc(Cl)c2)nc2c1CS(=O)(=O)C2 [Compound No. 2-6, 2-((1-(2-(3-Chlorophenyl)-6,6-dioxo-5,7-dihydro-thieno[3,4-d]pyrimidin-4-yl)-2,3-dihydro-1H-indol-4-yl)oxy)-N,N-dimethyl-acetamide] | 222 to 226 |  |  | 
9 | CN(C)C(=O)COc1ccc2c(c1)N(c1nc(-c3cccc4[nH]ccc34)nc3c1C[S+]([O-])C3)CC2 (stereo not shown) [2-151, 2-[[1-[2-(1H-Indol-4-yl)-6-oxo-5,7-dihydro-thieno[3,4-d]pyrimidin-4-yl]-2,3-dihydro-1H-indol-6-yl]oxy]-N,N-dimethyl-acetamide] |  | 108 | < 0.1 | 
10 | O=C(COc1ccc2c(c1)N(c1nc(-c3ccncc3)nc3c1CS(=O)(=O)C3)CC2)N1CCCC1 [Compound No. 2-130, 2-((1-(6,6-Dioxido-2-(pyridin-4-yl)-5,7-dihydrothieno[3,4-d]pyrimidin-4-yl)indolin-6-yl)oxy)-1-(pyrrolidin-1-yl)ethanone] |  | 87 | < 0.1 | 
11 | NC(=O)Cc1ccc2c(c1)CCN2c1nc(-c2ccc(Cl)s2)nc2c1CS(=O)(=O)C2 [Compound No. 3-6, 2-(1-(2-(5-Chlorothiophen-2-yl)-6,6-dioxido-5,7-dihydrothieno[3,4-d]pyrimidin-4-yl)indolin-5-yl)acetamide] |  | 103 | < 0.1 | 
12 | Cc1ccccc1-c1nc2c(c(N3CCc4ccc(OCC(=O)N(C)C)cc43)n1)C[S+]([O-])C2 (stereo not shown) [2-94, N,N-Dimethyl-2-[[1-(2-o-tolyl-6-oxo-5,7-dihydro-thieno[3,4-d]pyrimidin-4-yl)-2,3-dihydro-1H-indol-6-yl]oxy]-acetamide] |  | 91 | 0.1 to 1 | 
13 | COc1ccc(-c2nc3c(c(N4CCc5cc(CC(=O)O)ccc54)n2)CS(=O)(=O)C3)cc1Cl [Compound No. 1-11, 2-(1-(2-(3-Chloro-4-methoxy-phenyl)-6,6-dioxo-5,7-dihydro-thieno[3,4-d]pyrimidin-4-yl)-2,3-dihydro-1H-indol-5-yl)acetic acid] | 245 to 247 | 100 | < 0.1 | 
14 | CN(C)C(=O)COc1ccc2c(c1)N(c1nc(-c3ccc4cccnc4c3)nc3c1C[S+]([O-])C3)CC2 (stereo not shown) [2-149, N,N-Dimethyl-2-[[1-(6-oxo-2-quinolin-7-yl-5,7-dihydro-thieno[3,4-d]pyrimidin-4-yl)-2,3-dihydro-1H-indol-6-yl]oxy]-acetamide] |  | 92 | < 0.1 | 
15 | O=C(O)Cc1ccc2c(c1)CCN2c1nc(-c2ccc(Cl)s2)nc2c1CS(=O)(=O)C2 [Compound No. 1-22, 2-(1-(2-(5-Chlor-thiophen-2-yl)-6,6-dioxo-5,7-dihydro-thieno[3,4-d]pyrimidin-4-yl)-2,3-dihydro-1H-indol-5-yl)acetic acid] |  |  |  | 115
16 | O=C(COc1ccc2c(c1)N(c1nc(-c3ccc(Cl)s3)nc3c1CS(=O)(=O)C3)CC2)NCCO [2-62, 2-((1-(2-(5-Chlorothiophen-2-yl)-6,6-dioxido-5,7-dihydrothieno[3,4-d]pyrimidin-4-yl)indolin-6-yl)oxy)-N-(2-hydroxyethyl)acetamide] |  | 91 | < 0.1 | 
17 | CN(C)C(=O)COc1ccc2c(c1)N(c1nc(-c3ccc(Cl)s3)nc3c1CCC3)CC2 [Compound No. 2-42, 2-((1-(2-(5-Chlorothiophen-2-yl)-6,7-dihydro-5H-cyclopenta[d]pyrimidin-4-yl)indolin-6-yl)oxy)-N,N-dimethylacetamide] |  | 79 | < 0.1 | 
18 | COc1ccc(-c2nc3c(c(N4CCc5cc(CC(=O)O)ccc54)n2)CCC3)cc1F [Compound No. 1-1, 2-(1-(2-(3-Fluoro-4-methoxyphenyl)-6,7-dihydro-5H-cyclopenta[d]-pyrimidin-4-yl)indolin-5-yl)acetic acid] |  | 102 | < 0.1 | 
